Source: patent publication US11124526B2, “Crystalline beta-lactamase inhibitor” (Allecra Therapeutics SAS, priority 2013, dated 2021)
In brackets after ≈: the same amount, converted by molar mass.

What was measured:
Type in all cases: physicochemical
[1] = Solubility assessment of Form C in saline physiological solution (HPLC)
Procedure: The Form C solubility was calculated by HPLC employing a dedicated walk-up method. The product obtained by the scaled up procedure described in Example 13 was used to perform the experiments.
1.9 g of the product was suspended in 1 ml of commercial physiologic solution (0.9% of NaCl) at ambient temperature (˜20 ° C.). The suspension resulted slightly opaque and quite viscous after 30 min. After this time the suspension was sampled and the sample injected in HPLC to determine its concentration. After 2 hrs stirring the solid residue was completely dissolved. The addition of more solid was not performed to avoid the gelatinisation of the viscous solution. A sample was taken and injected in HPLC to determine its concentration. The solution was stirred other 3 hrs and sampled again. The 5 hrs sample was also injected in HPLC to determine its concentration.

[2] = Hygroscopicity of Form F (% weight change at 25° C. and 80% RH)
Procedure: The hygroscopicity was calculated using the following equation: % Weight Change=[(W2−W1)W1]*100 wherein, • W1 is weight of sample at the start of the experiment; and • W2 is weight of sample at 25° C. and 80% RH in the first absorption cycle.

[3] = Dynamic Vapor Sorption (DVS) of Form F; conditions: 25° C.
Procedure: Kinetic moisture sorption measurements were performed at 25° C. and at relative humidity (RH % target as follows: • From 40% RH to 90% RH • Form 90% RH to 0% RH • From 0% RH to 90% RH • From 90% RH to 0% RH The kinetic moisture sorption measurement was performed at 25° C. and in a RH % range described in the following: • From 40% RH to 90% RH • Form 90% RH to 0% RH • From 0% RH to 90% RH • From 90% RH to 0% RH The experiment is performed on 10-15 mg of sample and the equilibrium criterion is set as dm/dt<0.002% w/w in 10 min with a maximum step time of 240 min.

[4] = Stability tests of Form F stored at controlled temperature and RH
[5] = Solubility of amorphous compound of formula (I) in selected solvents (slurry stirred 4 hours, mother liquor by HPLC); conditions: thermodynamic from solid
Procedure: Solubility values of solvents were calculated with respect to the HPLC response factor, set out in FIG. 12.
HPLC response factor was calculated for the amorphous compound of formula (I) using samples dissolved in acetonitrile/water 9/1 with the following method: • Column: ZORBAX Eclipse XDB-C18 (150×4.6 mm, 5 μm) • Temperature: 25° C. • Mobile phase: A: 0.05M Sodium ortophosphate/water, B: Acetonitrile • Gradient: from 5% of B to 95% of B in 10 min • Detector: UV λ=220 nm
Slurries of the amorphous compound of formula (I) in the selected solvents were prepared and stirred at 20° C. and 40° C. for 4 hours. • Samples of each slurry were filtered and the mother liquors injected in HPLC. • The solid residual were isolated and analyzed by XRPD. • The results are summarized in the following Table 4.

[6] = Inventors' findings on hygroscopicity and stability of amorphous versus crystalline compound of formula (I)
[7] = 25° C. and 80% RH, first absorption cycle

**Q.** Which “Formation of impurities in physiologic solution (HPLC traces)” value ([1]; 0.9% NaCl, ambient temperature, up to 5 hrs) does the source give for `C[n+]1ccn(C[C@@]2(C)[C@H](C(=O)[O-])N3C(=O)C[C@H]3S2(=O)=O)n1` [Form C, (2S,3S,5R)-3-methyl-3-((3-methyl-1H-1,2,3-triazol-3-ium-1-yl)methyl)-7-oxo-4-thia-1-azabicyclo[3.2.0]heptane-2-carboxylate 4,4-dioxide] here?
**A.** did not show the formation of significant impurities

**Q.** And the solubility at 30 min ([1]; physiologic solution (0.9% NaCl), saline or isotonic, thermodynamic from solid, physiologic solution (0.9% of NaCl), ~20 ° C., timepoint 30 mins, read-out: Solubility (mg/ml) at ambient temperature)?
**A.** 772 mg/mL (≈ 2460 mM)

**Q.** What about the solubility at 2 h ([1]; physiologic solution (0.9% NaCl), saline or isotonic, thermodynamic from solid, physiologic solution (0.9% of NaCl), ~20 ° C., timepoint 2 hours, solid completely dissolved, read-out: Solubility (mg/ml) at ambient temperature) of the same compound?
**A.** > 883 mg/mL

**Q.** What about the solubility at 5 h ([1]; physiologic solution (0.9% NaCl), saline or isotonic, thermodynamic from solid, physiologic solution (0.9% of NaCl), ~20 ° C., timepoint 5 hours, read-out: Solubility (mg/ml) at ambient temperature) of the same compound?
**A.** > 812 mg/mL

**Q.** Which results are given for `C[n+]1ccn(C[C@@]2(C)[C@H](C(=O)[O-])N3C(=O)C[C@H]3S2(=O)=O)n1` [Form F, (2S,3S,5R)-3-methyl-3-((3-methyl-1H-1,2,3-triazol-3-ium-1-yl)methyl)-7-oxo-4-thia-1-azabicyclo[3.2.0]heptane-2-carboxylate 4,4-dioxide]?
**A.** Hygroscopicity classification [2, 7]: very hygroscopic; Mass increase (% Weight Change) [2, 7]: greater than 15%; Appearance at high humidity ([2]; high humidity): becomes a viscous liquid; Relative humidity up to which the form is stable (DVS) [3]: approximately 50 % RH; Weight increase (DVS) ([3]; at 90% RH): greater than 50 % w/w; Water sorption behaviour after the weight increase at 90% RH (DVS) ([3]; following cycles): releases and takes water reversibly; Stability on storage (appearance) ([4]; after a day at 25° C. and 60% RH): becomes a viscous liquid; Stability on storage (appearance) ([4]; after a day at 60° C. and 75% RH): becomes a viscous liquid

**Q.** What does the source list for `C[n+]1ccn(C[C@@]2(C)[C@H](C(=O)[O-])N3C(=O)C[C@H]3S2(=O)=O)n1` [amorphous compound of formula (I), (2S,3S,5R)-3-methyl-3-((3-methyl-1H-1,2,3-triazol-3-ium-1-yl)methyl)-7-oxo-4-thia-1-azabicyclo[3.2.0]heptane-2-carboxylate 4,4-dioxide]?
**A.** solubility at 4 h ([5]; organic solvent or mixture, 1-butanol, 20° C.): 97 mg/mL; solubility at 4 h ([5]; organic solvent or mixture, 1-butanol, 40° C.): 167 mg/mL; solubility at 4 h ([5]; organic solvent or mixture, 1-propanol, 20° C.): 295 mg/mL; solubility at 4 h ([5]; organic solvent or mixture, 1-propanol, 40° C.): > 400 mg/mL; solubility at 4 h ([5]; organic solvent or mixture, 2-propanol, 20° C.): 23 mg/mL; solubility at 4 h ([5]; organic solvent or mixture, 2-propanol, 40° C.): 28 mg/mL; solubility at 4 h ([5]; organic solvent or mixture, Acetonitrile, 20° C.): 6 mg/mL; solubility at 4 h ([5]; organic solvent or mixture, Dimethylsulfoxide, 20° C.): > 400 mg/mL; solubility at 4 h ([5]; organic solvent or mixture, Dimethylsulfoxide, 40° C.): > 400 mg/mL; solubility at 4 h ([5]; organic solvent or mixture, Ethanol, 20° C.): 420 mg/mL; solubility at 4 h ([5]; organic solvent or mixture, Ethanol, 40° C.): > 420 mg/mL; solubility at 4 h ([5]; organic solvent or mixture, Ethanol/acetone 20%, 20° C.): > 300 mg/mL; solubility at 4 h ([5]; organic solvent or mixture, Ethanol/acetone 40%, 20° C.): > 300 mg/mL; solubility at 4 h ([5]; organic solvent or mixture, Ethanol/methyl tert-butyl ether 20%, 20° C.): 52 mg/mL; solubility at 4 h ([5]; organic solvent or mixture, Ethanol/methyl tert-butyl ether 40%, 20° C.): 16 mg/mL; solubility at 4 h ([5]; organic solvent or mixture, Methanol, 20° C.): > 400 mg/mL; solubility at 4 h ([5]; organic solvent or mixture, Methanol, 40° C.): > 400 mg/mL; solubility at 4 h ([5]; Water, 20° C.): > 400 mg/mL; solubility at 4 h ([5]; Water, 40° C.): > 400 mg/mL; Hygroscopicity (statement in words) [6]: hygroscopic; Stability when stored ([6]; stored at room temperature): limited stability
